Results as given in paper PMC5007466, “VCP recruitment to mitochondria causes mitophagy impairment and neurodegeneration in models of Huntington's disease” (Nature Communications, 2016).

Key:
[1] = tested on: HD patient-iPS cell derived neurons; assay: Neurite length of DARPP-32/Tuj1-positive medium spiny neurons; assay type: cell-based, human; settings: DARPP-32/Tuj1-positive neurons, 1 μM per day for 5 days versus TAT
Procedure: iPS cells from a normal subject and a HD patient (carrying 41 CAG repeats) were differentiated into neurons using the protocol from our previous studies. Briefly, iPS cells were plated onto 6-well plates precoated with 2.5% Matrigel and allowed to reach 90% confluence in feeder-free medium. For the first 10 days, cells were treated with SB431542 (10 μM; Tocris Bioscience) and Noggin (100 ng/ml) in Neural Media (NM) containing Neurobasal and DMEM (1:1), B27 supplement minus vitamin A (50 × , Invitrogen), N2 supplement (100 × , Invitrogen), GlutaMax (Invitrogen, 100 × ), FGF2 ([…]) and EGF ([…]), 100 units per ml penicillin and 100 μg ml^−1 streptomycin). For the next 10 days, cells were treated with human recombinant Sonic hedgehog (SHH, 200 ng/ml), DKK1 (100 ng/ml) and BDNF (20 ng/ml) and 10 μM Y27632 (Sigma) in neuronal differentiation medium containing Neurobasal and DMEM (1:3), B27, N2, GlutaMax and PS. […]
In patient-iPS cell-derived neurons, to ensure the observation of mitochondria in the medium spiny neurons, the cells were stained with a mitochondrial marker (anti-TOM20, 1:500) and markers for medium spiny neurons (DARPP-32, 1:200, Epitomics). The quantitation of neurite length was conducted only in the neurons immunopositive for both DARPP-32 and Tuj1 (neuron-specific class III beta-tubulin, 1:5,000, Covance). At least 50 neurons/group were counted.

[2] = tested on: YAC128 mice; assay: General motility, YAC128 (24 h locomotor activity); assay type: in vivo, mouse; settings: YAC128, 3 mg/kg/day from 3 months; from 6 to 12 months of age, n=15–20
Description: YAC128 (FVB-Tg(YAC128)53Hay/J, JAX stock number: 004938) breeders (FVB/N genetic background) were purchased from Jackson Laboratories. The YAC128 mice contain a full-length human huntingtin gene modified with a 128 CAG repeat expansion in exon 1. The mice were mated, bred and genotyped in the animal facility of Case Western Reserve University. Male mice at the ages of 2, 3, 6, 9 and 12 months were used in the study.
YAC128 mice (Tg) and their age-matched wt littermates were implanted with an osmotic pump containing TAT control peptide or HV-3 peptide (3 mg/kg/day, each) starting from the age of 3 months. The pump was replaced once every month. By the age of 12 months, the treatments were terminated and the mouse samples were harvested for analysis.
Gross locomotor activity was assessed in R6/2 mice and age-matched wt littermates at the ages of 13 weeks and in YAC128 mice and age-matched wt littermates at the ages of 2, 3, 6, 9, and 12 months. In an activity chamber (Omnitech Electronics, Inc), mice were placed in the center of the chamber and allowed to explore while being tracked by an automated beam system (Vertax, Omnitech Electronics Inc). Distance moved, horizontal, vertical, and rearing activities were recorded. Because R6/2 mice were sensitive to changes in environment and handling, we only conducted one-hour locomotor activity analysis for R6/2 mice and wt littermates. […]

[3] = tested on: R6/2 mice; assay: PGC1-alpha protein level in mouse brain; assay type: in vivo; settings: R6/2 mouse brains (peer review file)
Description: Comment 2: Also how do the authors fit this in with the well-established defects in PGC1-alpha in HD. Do you have to have both?
Response: We thank the reviewer for these insightful comments. Following […]
mouse brains of R6/2 mice treated with either HV-3 or control peptide TAT.
Consistent with previous studies, we observed that PGC1-alpha was decreased in HD R6/2 mouse brains. To our surprise, treatment with HV-3 can partially […]
on the right). It is possible that this increase in PGC1-alpha level is an indirect effect of improvement of mitochondrial mass and quality by the HV-3 treatment.
Recent studies have shown that PGC1-alpha regulates mitophagy and autophagy via TFEB (Tsunemi T et al., Sci Trans Med, 2014; Siddiqui A et al., J Neurosci, 2015). Thus, our result may raise another possibility that there is a correlation between PGC1alpha and VCP-mediated mitophagy in HD. However, the mechanism remains to be determined, and it is beyond the scope of this manuscript. In response to the reviewer’s comment, we now add the following sentences in the discussion in the revised manuscript.
“In addition, PGC1α, a key regulator of mitochondrial biogenesis implicated in HD pathogenesis, has recently been reported to regulate mitophagy and autophagy through TFEB signaling 65, 66. […]

For `CSCC[C@H](NC(=O)[C@@H](NC(=O)[C@H](CC(C)C)NC(=O)[C@@H](NC(=O)[C@H](Cc1c[nH]cn1)NC(=O)CCCCCNC(=O)[C@H](CCCNC(=N)N)NC(=O)[C@H](CCCNC(=N)N)NC(=O)[C@H](CCCNC(=N)N)NC(=O)[C@H](CCC(N)=O)NC(=O)[C@H](CCCNC(=N)N)NC(=O)[C@H](CCCNC(=N)N)NC(=O)[C@H](CCCCN)NC(=O)[C@H](CCCCN)NC(=O)[C@H](CCCNC(=N)N)NC(=O)CNC(=O)[C@@H](N)Cc1ccc(O)cc1)C(C)C)C(C)C)C(=O)N[C@@H](CS)C(=O)N[C@@H](C)C(=O)N[C@H](C(N)=O)[C@@H](C)O` [HV-3], the neurite shortening [1] was “reduced neurite shortening”, the general movement activity [2] was “improved general movement activity” and the PGC1-alpha protein level [3] was “improve the protein level of PGC1-alpha in the R6/2 mouse brains”.
